According to patent US6946473B2, “Preparation and use of acetylenic ortho-sulfonamido and phosphinic acid amido bicyclic heteroaryl hydroxamic acids as TACE inhibitors” (priority 1999, dated 2005):

Key:
[1] = molecular target: T1, MMP-1 (Homo sapiens, UniProt P03956); experiment: MMP-1 inhibition (thiopeptide or fluorescent peptide substrate); assay type: biochemical
T1 sequence (P03956 100-469): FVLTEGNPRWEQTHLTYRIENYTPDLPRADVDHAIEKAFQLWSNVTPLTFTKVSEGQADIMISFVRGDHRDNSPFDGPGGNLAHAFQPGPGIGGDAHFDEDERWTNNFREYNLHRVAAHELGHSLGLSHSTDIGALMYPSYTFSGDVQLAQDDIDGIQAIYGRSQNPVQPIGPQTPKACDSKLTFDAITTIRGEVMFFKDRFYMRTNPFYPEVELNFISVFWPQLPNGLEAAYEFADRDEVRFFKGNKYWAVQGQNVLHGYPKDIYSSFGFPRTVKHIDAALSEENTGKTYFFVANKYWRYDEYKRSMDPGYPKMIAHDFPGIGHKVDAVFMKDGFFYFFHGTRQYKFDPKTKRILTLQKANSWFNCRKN

Row | melting point [°C] | SMILES | IC50 [1] [µM]
1 | 189 to 192 | CC#CCOc1ccc(S(=O)(=O)N(C)c2c(C(=O)NO)cnc3c2c(C)nn3C)cc1 [Example 7, 4-[(4-But-2-ynyloxy-benzenesulfonyl)-methyl-amino]-1,3-dimethyl-1H-pyrazolo[3,4-b]pyridine-5-carboxylic acid hydroxyamide] | –
2 | – | CC#CCOc1ccc(S(=O)(=O)N(C)c2c(C(=O)NO)cnc3onc(C)c23)cc1 [Example 9, 4-[(4-But-2-ynyloxy-benzenesulfonyl)-methyl-amino]-3-methyl-isoxazolo[5,4-b]pyridine-5-carboxylic acid hydroxyamide] | 1.91
3 | 183 to 184 | CC#CCOc1ccc(S(=O)(=O)N(C)c2c(C(=O)NO)cnc3snc(C)c23)cc1 [Example 13, 4-[(4-But-2-ynyloxy-benzenesulfonyl)-methyl-amino]-3-methyl-isothiazolo[5,4-b]pyridine-5-carboxylic acid hydroxyamide] | –
